From patent publication US12448388B2, “PRMT5 inhibitors and uses thereof” (Gilead Sciences, Inc., priority 2023, dated 2025)
Where two headings read alike, the source gives them in different places.

Key:
[1] = test system: HCT116 MTAP-deleted cell lines; experiment: Cell viability assay (CellTiter-Glo, 7 days), HCT116 MTAP-deleted; format: cell-based; conditions: Homo sapiens, HCT-116, HCT116 MTAP-deleted, class symbols, read-out: CC50
How it was run: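 CC50 values come from 7-day CellTiter-Glo viability measurements on cells exposed to a dose range of PRMT5 inhibitors dispensed from DMSO stocks.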

[2] = test system: Symmetric Di-methyl Arginine (SDMA) signal (PRMT5 inhibition) in HCT116 MTAP-deleted cells; experiment: Symmetric di-methyl arginine image-based high content screen assay (SDMA assay), HCT116 MTAP-deleted; format: cell-based; conditions: for EC50 selectivity: HCT116 WT versus HCT116 MTAP-deleted; for EC50: Homo sapiens, HCT-116, HCT116 MTAP-deleted, class symbols
Experimental: Symmetric di-methyl arginine image-based high content screen assay (SDMA assay) was performed in HCT116 WT and HCT116 MTAP-deleted cell lines to measure Symmetric Di-methyl Arginine (SDMA) signal reduction after selective PRMT5 inhibition in the MTAP-deleted cells. Control compounds were analyzed in parallel each time for quality control.
Briefly, the same compound plates were generated as mentioned in the previous section of Cell viability assay on Day −1. On Day 0, 800 HCT WT or HCT116 MTAP-deleted cell were seeded in compound-containing 384 well plates (50 μl per well) in RPMI 1640 media supplemented with 10% heat inactivated fetal bovine serum, Glutamax and penicillin streptomycin using EL460 liquid dispenser 5 μl cassette (BioTek, part no. 7170011). After equilibrating the plate at room temperature, the cells were incubated for 3 days inside the sealed incubator set at 37° C. with 90% humidity and 5% C02.
On Day 3, the cells were fixed by adding 45 μl of 8% neutralized formalin solution to each well using EL460 liquid dispenser 5 μl cassette and the cells were incubated for 30 minutes at room temperature. The formalin solution was washed off with […] phosphate buffered saline (dPBS), the 0.1% Triton X-100 solution in dPBS was used to permeabilize the cells for 15 minutes at room temperature. The triton solution was aspirated, 50 μl of Odyssey Blocking buffer +0.05% Tween20 was added and the plate was incubated at room temperature for 30 minutes.
The blocking solution was removed, a 20 μl of SDMA antibody (Cell Signaling Technology, Cat no. 13222) diluted 1:500 in Odyssey Blocking buffer +0.05% Tween20 was added and the plate was incubated at 4° C. overnight. Next day, the primary SDME antibody solution was washed from each well three times with 0.05% Tween20 in dPBS (PBST).
A 30 μl of the secondary antibody, a Goat anti-Rabbit Alexa Fluor Plus 488 (Invitrogen, Cat no. PIA32731) was diluted 1:500 in Odyssey Blocking buffer +0.05% Tween20 and the plate was incubated for 1.5 hours in dark at room temperature. The secondary antibody solution was removed, 30 μl of 5 mg/ml DAPI solution diluted 1:2000 in dPBS was added and the plate was incubated for 30 minutes in dark at room temperature. The DAPI solution was aspirated and the wells were washed six times with dPBS.
The SDMA signal and DAPI signal per cell were counted using a Cellomics CX7 LZR instrument reading under 488 and 405 nm laser, respectively. The SDMA signal was quantified by mean average intensity per cell from Alexa Fluor Plus 488 after the cell was defined with DAPI. The EC50 values for each compound after 3 days of treatment were calculated using 4 parameter non-linear logistical curve fit.
For the SDMA assay i.e. EC50 shown in Table 3A: A: EC50≤1 nM, B: 1 nM<EC50≤5 nM, C: EC50>5 nM.

Row | Compound | CC50 ([1]; cell viability assay) [nM] | other results
1 | Nc1nc2cc(F)c(C(=O)N3CCO[C@@H]4Cc5cc(Br)ccc5[C@@H]43)cc2n2cncc12 (racemic) [Ff-28, Racemic(4-amino-7-fluoroimidazo[1,5-a]quinoxalin-8-yl)((4aS,9aR)-7-bromo-2,3,9,9a-tetrahydroindeno[2,1-b][1,4]oxazin-4(4aH)-yl)methanone] | – | CC50 ([1]; cell viability): < 100 nM; EC50 selectivity [2]: 256; EC50 [2]: 1 to 5 nM
2 | COc1ccc2c(c1)CO[C@H]1CCCN(C(=O)c3cc4c(cc3F)nc(N)c3cncn34)[C@@H]21 (racemic) [Ff-44, Rac-(4-amino-7-fluoroimidazo[1,5-a]quinoxalin-8-yl)((cis)-8-methoxy-2,3,4,4a,6,10b-hexahydro-1H-isochromeno[4,3-b]pyridin-1-yl)methanone] | – | CC50 ([1]; cell viability): < 100 nM; EC50 selectivity [2]: 73; EC50 [2]: 1 to 5 nM
3 | Nc1nc2cnc(C(=O)N3CCC[C@@H]4Oc5cc(Cl)ccc5[C@@H]43)cc2n2cncc12 [Fg-28, (4-aminoimidazo[1,5-a]pyrido[3,4-e]pyrazin-8-yl)((4aS,9bS)-7-chloro-3,4,4a,9b-tetrahydrobenzofuro[3,2-b]pyridin-1(2H)-yl)methanone] | < 100 | –
4 | Cc1ncn2c1c(N)nc1cnc(C(=O)N3CCC[C@@H]4Oc5cc(OC(F)(F)F)ccc5[C@@H]43)cc12 [Fg-30, (4-amino-3-methylimidazo[1,5-a]pyrido[3,4-e]pyrazin-8-yl)((4aS,9bS)-7-(trifluoromethoxy)-3,4,4a,9b-tetrahydrobenzofuro[3,2-b]pyridin-1(2H)-yl)methanone] | < 100 | –
5 | Cc1ncn2c1c(N)nc1cnc(C(=O)N3CCC[C@@H]4Oc5cc(OC(F)(F)F)c(F)cc5[C@@H]43)cc12 [Fg-32, (4-amino-3-methylimidazo[1,5-a]pyrido[3,4-e]pyrazin-8-yl)((4aS,9bS)-8-fluoro-7-(trifluoromethoxy)-3,4,4a,9b-tetrahydrobenzofuro[3,2-b]pyridin-1(2H)-yl)methanone] | < 100 | –
6 | Cc1ncn2c1c(N)nc1cc(F)c(C(=O)N3CC[C@H]4C[C@@H]3c3ccc(C(F)(F)F)nc3O4)cc12 [Fg-33, (4-amino-7-fluoro-3-methylimidazo[1,5-a]quinoxalin-8-yl)((2S,6R)-9-(trifluoromethyl)-3,4-dihydro-2H-2,6-methanopyrido[2,3-b][1,5]oxazocin-5(6H)-yl)methanone] | < 100 | –
7 | Cc1ncn2c1c(N)nc1cc(F)c(C(=O)N3C[C@@H](C)O[C@@H]4Cc5cc(C(F)(F)F)ccc5[C@@H]43)cc12 [Fg-34, (4-amino-7-fluoro-3-methylimidazo[1,5-a]quinoxalin-8-yl)((2R,4aS,9aR)-2-methyl-7-(trifluoromethyl)-2,3,9,9a-tetrahydroindeno[2,1-b][1,4]oxazin-4(4aH)-yl)methanone] | < 100 | –
8 | Cc1ncn2c1c(N)nc1cnc(C(=O)N3CC4(CC4)C[C@@H]4Oc5cc(C(F)(F)F)ccc5[C@@H]43)cc12 [Fg-36, (4-amino-3-methylimidazo[1,5-a]pyrido[3,4-e]pyrazin-8-yl)((4aS,9bS)-7-(trifluoromethyl)-4a,9b-dihydro-2H-spiro[benzofuro[3,2-b]pyridine-3,1′-cyclopropan]-1(4H)-yl)methanone] | < 100 | –
9 | Cc1ncn2c1c(N)nc1cnc(C(=O)N3C[C@@H](C)C[C@@H]4Oc5cc(C(F)(F)F)ccc5[C@@H]43)cc12 [Fg-37, (4-amino-3-methylimidazo[1,5-a]pyrido[3,4-e]pyrazin-8-yl)((3S,4aS,9bS)-3-methyl-7-(trifluoromethyl)-3,4,4a,9b-tetrahydrobenzofuro[3,2-b]pyridin-1(2H)-yl)methanone] | < 100 | –
10 | Cc1ncn2c1c(N)nc1cnc(C(=O)N3C[C@H](C)C[C@@H]4Oc5cc(C(F)(F)F)c(F)cc5[C@@H]43)cc12 [Fg-39, (4-amino-3-methylimidazo[1,5-a]pyrido[3,4-e]pyrazin-8-yl)((3R,4aS,9bS)-8-fluoro-3-methyl-7-(trifluoromethyl)-3,4,4a,9b-tetrahydrobenzofuro[3,2-b]pyridin-1(2H)-yl)methanone] | < 100 | –
11 | Cc1ncc2c(N)nc3cnc(C(=O)N4CCC[C@@H]5Oc6cc(S(F)(F)(F)(F)F)ccc6[C@@H]54)cc3n12 [Fg-43, (4-amino-1-methylimidazo[1,5-a]pyrido[3,4-e]pyrazin-8-yl)((4aS,9bS)-7-(pentafluoro-16-sulfaneyl)-3,4,4a,9b-tetrahydrobenzofuro[3,2-b]pyridin-1(2H)-yl)methanone] | < 100 | –
12 | Cc1ncc2c(N)nc3cnc(C(=O)N4C[C@@H](F)C[C@@H]5Oc6cc(OC(F)(F)F)ccc6[C@@H]54)cc3n12 [Fg-45, (4-amino-1-methylimidazo[1,5-a]pyrido[3,4-e]pyrazin-8-yl)((3S,4aS,9bS)-3-fluoro-7-(trifluoromethoxy)-3,4,4a,9b-tetrahydrobenzofuro[3,2-b]pyridin-1(2H)-yl)methanone] | < 100 | –
13 | Cc1ncn2c1c(N)nc1ccc(C(=O)N3C[C@@H](F)C[C@@H]4Oc5cc(OC(F)(F)F)ccc5[C@@H]43)cc12 [Fg-47, (4-amino-3-methylimidazo[1,5-a]quinoxalin-8-yl)((3S,4aS,9bS)-3-fluoro-7-(trifluoromethoxy)-3,4,4a,9b-tetrahydrobenzofuro[3,2-b]pyridin-1(2H)-yl)methanone] | < 100 | –
14 | CCc1cc2nc(N)c3cncn3c2cc1C(=O)N(C)[C@@H]1COc2cc(C(F)(F)F)ccc21 [Fg-52, (S)-4-amino-7-ethyl-N-methyl-N-(6-(trifluoromethyl)-2,3-dihydrobenzofuran-3-yl)imidazo[1,5-a]quinoxaline-8-carboxamide] | < 100 | –
15 | Nc1nc2cc(C3CC3)c(C(=O)N3CCC[C@@H]4Oc5cc(C(F)(F)F)ccc5[C@@H]43)cc2n2cncc12 [Fg-56, (4-amino-7-cyclopropylimidazo[1,5-a]quinoxalin-8-yl)((4aS,9bS)-7-(trifluoromethyl)-3,4,4a,9b-tetrahydrobenzofuro[3,2-b]pyridin-1(2H)-yl)methanone] | 100 to 1000 | –
16 | Nc1nc2cnc(C(=O)N3CC4(CC4)C[C@@H]4Oc5cc(OC(F)(F)F)ccc5[C@@H]43)cc2n2cncc12 [Fg-61, (4-aminoimidazo[1,5-a]pyrido[3,4-e]pyrazin-8-yl)((4aS,9bS)-7-(trifluoromethoxy)-4a,9b-dihydro-2H-spiro[benzofuro[3,2-b]pyridine-3,1′-cyclopropan]-1(4H)-yl)methanone] | < 100 | –
17 | Cc1ncn2c1c(N)nc1cnc(C(=O)N3CCC[C@@H]4Oc5c(ccc(OC(F)(F)F)c5F)[C@@H]43)cc12 [Fg-62, (4-amino-3-methylimidazo[1,5-a]pyrido[3,4-e]pyrazin-8-yl)((4aS,9bS)-6-fluoro-7-(trifluoromethoxy)-3,4,4a,9b-tetrahydrobenzofuro[3,2-b]pyridin-1(2H)-yl)methanone] | < 100 | –
18 | Cc1ncn2c1c(N)nc1cnc(C(=O)N3C[C@H](C)C[C@@H]4Oc5c(ccc(C(F)(F)F)c5F)[C@@H]43)cc12 [Fg-63, (4-amino-3-methylimidazo[1,5-a]pyrido[3,4-e]pyrazin-8-yl)((3R,4aS,9bS)-6-fluoro-3-methyl-7-(trifluoromethyl)-3,4,4a,9b-tetrahydrobenzofuro[3,2-b]pyridin-1(2H)-yl)methanone] | < 100 | –
19 | Cc1ncn2c1c(N)nc1cnc(C(=O)N3CC[C@H]4C[C@@H]3c3ccc(C(F)(F)F)cc3O4)cc12 [Fg-64, (4-amino-3-methylimidazo[1,5-a]pyrido[3,4-e]pyrazin-8-yl)((2S,6R)-9-(trifluoromethyl)-3,4-dihydro-2H-2,6-methanobenzo[b][1,5]oxazocin-5(6H)-yl)methanone] | < 100 | –
